Here are results for 27 compounds from patent US20040077674A1, “Mappicine analogs, intermediates in the synthesis of mappicine analogs and methods of synthesis of mappicine analogs” (priority 2002, published 2004).

For series [1], the target named is T1, RNase H activity of HIV reverse transcriptase (Human immunodeficiency virus type 1 group M subtype B, UniProt P03366).
T1 construct: 2.5 nM of the p51/p66 RT heterodimer in the assay; made in house
Briefly: Fluorescence (FRET)-based RNase H assay of HIV reverse transcriptase. It counts as biochemical, HIV-1. The following applies: for IC50: in vitro, read-out: IC50 (μM) against HIV RNase H in vitro; for remaining activity at 10 µM / Residual activity (%) RNase H: 10 μM inhibitor concentration, activity in presence / in absence of analog x 100; for remaining activity at 10 µM: read-out: Residual activity (%) RNase H.

For series [2], the system named is HIV-1 replication. Briefly: HIV-1 replication in cultured cells (cell culture viral growth assay). It counts as cell-based.
In series [3] the test system is mutant HIV-1 strain with V106A+Y181C in the viral reverse transcriptase. The experiment in a line: Replication of NNRTI-resistant mutant HIV-1 strain V106A+Y181C in cultured cells. The series is classed as cell-based. As to conditions: V106A+Y181C mutant HIV-1; read-out: EC50 of inhibition of replication of resistant virus strain.
The test system of series [4] is mutant HIV-1 strain with K103N+Y181C in the viral reverse transcriptase. The experiment in a line: Replication of NNRTI-resistant mutant HIV-1 strain K103N+Y181C in cultured cells. It counts as cell-based. The following applies: K103N+Y181C mutant HIV-1; read-out: EC50 of inhibition of replication of resistant virus strain.
For series [5], the system named is cells. The following applies: cited from earlier work.
In series [6] the test system is HIV-1 replication. As to conditions: published RNase H inhibitors; cited from earlier work.
In series [7] the test system is cells. The following applies: cited from earlier work. This is another data set of the same source.
For series [8], the target named is T1, RNase H activity of HIV reverse transcriptase. The following applies: read-out: IC50 of RNase H inhibition; literature (Borkow et al. 1997); cited from earlier work.
For series [9], the target named is T2, RNA-dependent DNA polymerase activity of HIV reverse transcriptase (Human immunodeficiency virus type 1 group M subtype B, UniProt P03366).
T2 construct: made in house
Briefly: RNA-dependent DNA polymerase activity assay of HIV reverse transcriptase. It counts as biochemical, HIV-1. The following applies: 10 μM inhibitor concentration, activity in presence / in absence of analog x 100; for remaining activity at 10 µM: read-out: Residual activity (%) Polymerase. The gist of the method: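 Single-concentration test of mappicine analogs at 10 μM final against the RNA-dependent DNA polymerase activity of HIV RT. Value is % residual activity: polymerase activity with analog divided by activity without analog, ×100.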

Setting [10] is: Human immunodeficiency virus 1, cell culture viral growth assays, read-out: EC50 (μM) against HIV-1 replication.

Where “and” joins values, the source holds several entries; their conditions need not be identical. Equal entries are not always repeated. Where two headings read alike, the source gives them in different places.

As for `CCCc1c2c(nc3ccc(Cl)cc13)-c1cc(C(O)CCC3CCCCC3)c(C)c(=O)n1C2` (stereo not drawn) [Compound 7.5.6], in series [1] (20 μM inhibitor concentration), the “% inhibition of RNase H at 20 μM” value amounted to 100%. Also, in [1] (dose-response curves FIG. 13, 10 μM or 20 μM screens), the “inhibitory activity against HIV-1 RNase H (in words)” value was “possess inhibitory activity against HIV-1 RNase H”. Further, the EC50 with HIV-1 replication [2] (wild-type HIV-1 in cultured cells, read-out: EC50 of inhibition of replication of wild-type HIV-1) was ~3 µM; in [3], 4.2 µM; in [4] it was 3.5 µM.

Turning to `O=C(O)C(=NNc1ccc(Cl)cc1)C(=O)O` [CPHM, 2-[(4-chlorophenyl)-hydrazono]-malonic acid], the “ability to penetrate cells (in words)” value in the series with cells [5] was “Neither CPHM nor BTOBA are able to penetrate cells”. Moreover, in the series with HIV-1 replication [6], the “antiviral activity against HIV-1 replication in cultured cells (in words)” value (from here on “antiviral activity”) is listed as “cannot inhibit HIV-1 replication in cultured cells”.

Consider `O=C(O)C(=O)CC(=O)c1ccc(NC(=O)c2ccccc2)s1` [BTOBA, 4-[5-(benzoylamino)thien-2-yl]-2,4-dioxobutanoic acid], for which the “ability to penetrate cells (in words)” value in the series with cells [5] was “Neither CPHM nor BTOBA are able to penetrate cells”. The “antiviral activity” value in the series with HIV-1 replication [6] is “cannot inhibit HIV-1 replication in cultured cells”.

Turning to `CC(C)(C)c1ccc(C(=O)NN=Cc2c(O)ccc3ccccc23)cc1` [BBNH, N-4-(t-butylbenzoyl)-2-hydroxy-1-naphthaldehyde hydrazone], the IC50 is 1.8 µM in series [1] and ~2000 nM in series [8]. For the same compound, the “toxicity to cells (in words)” value in the series on cells [7] is given as “highly toxic to cells”. Further, the “antiviral activity” value in the series with HIV-1 replication [6] is given as “demonstrated antiviral activity against HIV-1 replication in cultured cells”.

As for `CCC(O)c1cc2n(c(=O)c1C)Cc1c-2nc2ccc(NC(=O)OC(C)(C)C)cc2c1[Si](C)(C)C` (stereo not drawn) [5 (AG 2M), 2-tert-Butyloxycarbonylamino-7-(1-hydroxypropyl)-8-methyl-12-trimethylsilanyl-11H-indolizino [1,2-b]quinolin-9-one], in series [1], the remaining activity at 10 µM is 47%; the IC50 was < 10 µM and 8 µM. Moreover, the EC50 in the series with HIV-1 replication [2] (setting [10]) was ~5 µM. Also, in series [9], the remaining activity at 10 µM came out at 80%.

With `CCc1c2c(nc3ccc(O)cc13)-c1cc(C(O)CC)c(C)c(=O)n1C2` (stereo not drawn) [5 (AG 8M), 12-Ethyl-2-hydroxy-7-(1-hydroxypropyl)-8-methyl-11H-indolizino[1,2-b]quinolin-9-one], the values for the remaining activity at 10 µM in [1] and in [9] were 87% and 69%, respectively.

Turning to `CCCCCCc1c2c(nc3ccc(F)cc13)-c1cc(C(=O)CCC3CCCCC3)c(C)c(=O)n1C2` [5 (8Bδκ)], the “Residual activity (%) RNase H” value in series [1] is on record as 95%. The “Residual activity (%) Polymerase” value in series [9] turned out to be 80%.

For the compound `CCCCCCc1c2c(nc3ccccc13)-c1cc(C(O)Cc3ccccc3)c(C)c(=O)n1C2` (stereo not drawn) [5 (8Aε)], the “Residual activity (%) RNase H” value in [1] came out at 71%. For the same compound, the “Residual activity (%) Polymerase” value in series [9] is 58%.

`CCc1c2c(nc3ccccc13)-c1cc(C(O)CC)c(C)c(=O)n1C2` (stereo not drawn) [5 (AG 4M)]: in [1], the “Residual activity (%) RNase H” value was 74%. Moreover, in [9], the “Residual activity (%) Polymerase” value is given as 100%.

As for `CCc1c2c(nc3ccc(NC(=O)OC(C)(C)C)cc13)-c1cc(C(O)CC)c(C)c(=O)n1C2` (stereo not drawn) [5 (AG 5M), 2-tert-Butyloxycarbonylamino-12-ethyl-7-(1-hydroxypropyl)-8-methyl-11H-indolizino[1,2-b]quinolin-9-one], the figures for the remaining activity at 10 µM in series [1] and in [9] were 68% and 87%, respectively.

Take `CCCCCCc1c2c(nc3ccc(C)cc13)-c1cc(C(O)CC)c(C)c(=O)n1C2` (stereo not drawn) [5 (8Cα)]: the “Residual activity (%) RNase H” value in [1] is on record as 65%. The “Residual activity (%) Polymerase” value in series [9] stood at 84%.

Regarding `CCCCCCc1c2c(nc3ccc(C)cc13)-c1cc(C(O)C(C)(C)C)c(C)c(=O)n1C2` (stereo not drawn) [5 (8Cβ)], in series [1], the “Residual activity (%) RNase H” value stood at 93%. Further, in [9], the “Residual activity (%) Polymerase” value was 111%.

Consider `Cc1c(C(O)C(C)(C)C)cc2n(c1=O)Cc1c-2nc2ccccc2c1-c1ccccc1` (stereo not drawn) [5 (3Aβ)], for which the “Residual activity (%) RNase H” value in series [1] is given as 95%. Also, the “Residual activity (%) Polymerase” value in [9] is given as 54%.

Turning to `CCc1c2c(nc3ccc(N)cc13)-c1cc(C(O)CC)c(C)c(=O)n1C2` (stereo not drawn) [5 (AG 6M), 2-Amino-12-ethyl-7-(1-hydroxypropyl)-8-methyl-1 1H-indolizinol[1,2-b]quinolin-9-one], in [1], the remaining activity at 10 µM was found to be 57%; the IC50 was < 10 µM and 10 µM. Further, the EC50 in the series with HIV-1 replication [2] (setting [10]) is ~5 µM. In series [9], the remaining activity at 10 µM is 76%.

Consider `CCCCCCc1c2c(nc3ccc(OC)cc13)-c1cc(C(O)CCC3CCCCC3)c(C)c(=O)n1C2` (stereo not drawn) [5 (8Dδ)], for which, in series [1], the “Residual activity (%) RNase H” value is reported as 63%. Besides, the “Residual activity (%) Polymerase” value in [9] turned out to be 81%.

Consider `CCC(=O)c1cc2n(c(=O)c1C)Cc1c-2nc2ccc(F)cc2c1[Si](C)(C)C` [5 (5Bακ)], for which the “Residual activity (%) RNase H” value in [1] came out at 89%. For the same compound, in series [9], the “Residual activity (%) Polymerase” value was determined as 74%.

For the compound `COc1ccc2nc3c(c([Si](C)(C)C)c2c1)Cn1c-3cc(C(=O)CCC2CCCCC2)c(C)c1=O` [5 (5Dδκ)], in series [1], the “Residual activity (%) RNase H” value was 92%. The “Residual activity (%) Polymerase” value in series [9] is 40%.

Turning to `CCC(=O)c1cc2n(c(=O)c1C)Cc1c-2nc2ccccc2c1[Si](C)(C)C` [5 (5Aακ)], in series [1], the “Residual activity (%) RNase H” value is 103%. Besides, the “Residual activity (%) Polymerase” value in series [9] is given as 91%.

As to `CCCCCCc1c2c(nc3ccc(C)cc13)-c1cc(C(O)CCC3CCCCC3)c(C)c(=O)n1C2` (stereo not drawn) [5 (8Cδ)], the “Residual activity (%) RNase H” value in series [1] is 72%. Besides, the “Residual activity (%) Polymerase” value in series [9] is reported as 73%.

Regarding `CCC(=O)c1cc2n(c(=O)c1C)Cc1c-2nc2ccc(C)cc2c1[Si](C)(C)C` [5 (5Cακ)], the “Residual activity (%) RNase H” value in [1] worked out at 109%. Also, the “Residual activity (%) Polymerase” value in series [9] came to 93%.

As for `Cc1ccc2nc3c(c(-c4ccccc4)c2c1)Cn1c-3cc(C(=O)C(C)(C)C)c(C)c1=O` [5 (3Cβκ)], in series [1], the “Residual activity (%) RNase H” value was found to be 96%. The “Residual activity (%) Polymerase” value in [9] is recorded as 63%.

Take `CCCCCCc1c2c(nc3ccc(F)cc13)-c1cc(C(O)CCC3CCCCC3)c(C)c(=O)n1C2` (stereo not drawn) [5 (8Bδ)]: in [1], the “Residual activity (%) RNase H” value is given as 112%. In [9], the “Residual activity (%) Polymerase” value was 90%.

As for `Cc1ccc2nc3c(c(-c4ccccc4)c2c1)Cn1c-3cc(C(=O)CCC2CCCCC2)c(C)c1=O` [5 (3Cδκ)], the “Residual activity (%) RNase H” value in [1] was 93%. Further, the “Residual activity (%) Polymerase” value in series [9] is 65%.

Turning to `Cc1c(C(=O)CCC2CCCCC2)cc2n(c1=O)Cc1c-2nc2ccc(F)cc2c1-c1ccccc1` [5 (3Bδκ)], the “Residual activity (%) RNase H” value in [1] worked out at 93%. The “Residual activity (%) Polymerase” value in series [9] was found to be 59%.

For `Cc1c(C(=O)CCC2CCCCC2)cc2n(c1=O)Cc1c-2nc2ccc(F)cc2c1[Si](C)(C)C` [5 (5Bδκ)], the “Residual activity (%) RNase H” value in series [1] turned out to be 78%. The “Residual activity (%) Polymerase” value in [9] was 46%.

Regarding `Cc1c(C(=O)C(C)(C)C)cc2n(c1=O)Cc1c-2nc2ccc(F)cc2c1-c1ccccc1` [5 (3Bβκ)], in series [1], the “Residual activity (%) RNase H” value turned out to be 95%. For the same compound, in series [9], the “Residual activity (%) Polymerase” value stood at 61%.

`CCCCCCc1c2c(nc3ccc(C)cc13)-c1cc(C(O)Cc3ccccc3)c(C)c(=O)n1C2` (stereo not drawn) [5 (8Cε)]: the “Residual activity (%) RNase H” value in series [1] is 76%. In series [9], the “Residual activity (%) Polymerase” value is reported as 76%.

For orientation: EC50 means the concentration at which the effect is half-maximal. By IC50 is commonly meant the concentration at which inhibition is half-maximal.
